Data from publication PMC4306533, “Distinct Features of Cap Binding by eIF4E1b Proteins” (Journal of Molecular Biology, 2015).
Where two headings read alike, the source gives them in different places.

Columns and labels:
[1] = target: T1, heIF4E1a (Homo sapiens, UniProt P06730); parameters: method as in PMID 17369309; conditions: equilibrium association constant; buffer without glycerol; footnote b; cited from earlier work
T1 construct: made in house; host or cells: E. coli Rosetta2(DE3)

[2] = target: T2, X4E1a4 (E101S/K102R/S195A/M82S) (Xenopus laevis, UniProt P48597, E101S/K102R/M82S/S195A); test: fluorescence titration, XeIF4E1a mutant; type: binding; conditions: mutant (E101S/K102R/S195A/M82S) of XeIF4E1a
T2 construct: made in house; host or cells: E. coli Rosetta2(DE3)
Text: (§1) We tested the effect on cap-binding activity of these positions in the fluorescence assay with six mutated recombinant versions of Xenopus eIF4E1a (Fig. S4). The amino acids were introduced in XeIF4E1a sequentially in the order: E101S/K102R/S195A/M82S/T206L/T207S (numbering of the XeIF4E1a sequence is shifted backward by 4 amino acids relative to XeIF4E1b). […] The biggest contribution to the weaker cap binding of XeIF4E1a, in each case about 20%, resulted from changing Glu101 to Ser and Thr206 to Leu coupled with Thr207 to Ser, with the remaining mutations having only minor effects. […] Glu101 is a solvent-accessible amino acid and is proximal to Trp98 in the S3-S4 loop. […] Attenuation of the cap-binding affinity of XeIF4E1a resulting from mutating Thr206 and Thr207 is consistent with our results mentioned above showing significant influence of C-terminal loop residues on binding phosphate and the second nucleotide.
(§2) For human eIF4E1a and eIF4E1b and also for Xenopus eIF4E1a and its mutated forms, measurements were carried out using 0.1 μM protein in 50 mM Hepes/KOH (pH 7.2), 134.5 mM KCl, 0.5 mM EDTA and 1 mM DTT. For Xenopus eIF4E1b(ΔN27), the concentration was 0.2 μM and glycerol was added to the buffer to 10% (v/v) final concentration. […] The gradually increasing concentration of cap analogue quenches protein fluorescence without shifting the spectrum maximum, while at high concentrations, the fluorescence signal of free cap analogue dominates over the fluorescence from other solution components including free eIF4E and eIF4E in complex with cap (Fig. S2a). Fluorescence of measured samples was excited at 280 nm (2.5 nm bandwidth) and detected at 337 nm or 330 nm (4 nm bandwidth), thus reducing the signal originated from the free cap analogues. Measurements were carried out on a LS-55 spectrofluorometer (Perkin Elmer Co.) using freshly prepared proteins, and the fluorescence intensities were corrected for sample dilution and the inner filter effect.
(§3) Equilibrium association constants (Kas) were determined by fitting the theoretical dependence of fluorescence intensity on the total concentration of the cap analogue to the experimental data points, according to the equation described previously (see Ref. [22] and Fig. S2c). […] Along with Kas and the concentration of the active protein [P0^act], other parameters such as fL and ∆f = fPact − fPL are also gained from the fit, where fL represents the fluorescence efficiency of free cap analogue and ∆f represents the difference between the fluorescence efficiencies of the apo-protein and the complex (Fig. S2c).
(§4) The final Kas was calculated as a weighted average of 2–6 independent titrations with the weights taken as the reciprocal of the numerical standard deviation squared. Numerical, nonlinear least-squares regression analysis was performed using Origin 6.0 (Microcal Software Inc.). Obtained association constants were used to determine the Gibbs free energy according to the standard equation ΔG° = − RTlnKas.

[3] = target: T3, X4E1a3 (E101S/K102R/S195A) (Xenopus laevis, UniProt P48597, E101S/K102R/S195A); test: fluorescence titration, XeIF4E1a mutant; type: binding; conditions: mutant (E101S/K102R/S195A) of XeIF4E1a
T3 construct: made in house; host or cells: E. coli Rosetta2(DE3)
Text: as §1, §2, §3, §4

[4] = target: T4, X4E1a6 (E101S/K102R/S195A/M82S/T206L/T207S) (Xenopus laevis, UniProt P48597, E101S/K102R/M82S/S195A/T206L/T207S); test: fluorescence titration, XeIF4E1a mutant; type: binding; conditions: for Kas X4E1a6: mutant (E101S/K102R/S195A/M82S/T206L/T207S) of XeIF4E1a
T4 construct: made in house; host or cells: E. coli Rosetta2(DE3)
Text: as §1, §2, §3, §4

[5] = target: T5, heIF4E1b (Homo sapiens, UniProt A6NMX2); test: time-synchronized fluorescence titration of cap analogue binding; conditions: for Kas − glycerol heIF4E1b: equilibrium association constant, buffer without glycerol
T5 construct: made in house; host or cells: E. coli Rosetta2(DE3)
T5 sequence (A6NMX2 1-242): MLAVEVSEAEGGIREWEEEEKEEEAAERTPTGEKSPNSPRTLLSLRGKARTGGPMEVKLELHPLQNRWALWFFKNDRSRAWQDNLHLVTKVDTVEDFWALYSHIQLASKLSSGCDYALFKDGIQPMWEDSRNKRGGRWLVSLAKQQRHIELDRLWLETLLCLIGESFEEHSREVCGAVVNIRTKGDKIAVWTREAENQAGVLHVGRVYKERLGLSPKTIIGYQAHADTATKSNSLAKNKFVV
Text: (§5) The time-synchronized fluorescence titration method, widely used to determine the affinity constants of cap–eIF4E complexes [[20,22–26]], measures the quenching of the intrinsic fluorescence of tryptophan residues due to cap binding (Fig. S2). Knowledge of the equilibrium association constant Kas enables the calculation of the free-energy changes involved in the interaction between eIF4E and ligand, according to the standard equation ΔG° = − RTlnKas.
(§6) For human eIF4E1a and eIF4E1b and also for Xenopus eIF4E1a and its mutated forms, measurements were carried out using 0.1 μM protein in 50 mM Hepes/KOH (pH 7.2), 134.5 mM KCl, 0.5 mM EDTA and 1 mM DTT. For Xenopus eIF4E1b(ΔN27), the concentration was 0.2 μM and glycerol was added to the buffer to 10% (v/v) final concentration. […] Fluorescence of measured samples was excited at 280 nm (2.5 nm bandwidth) and detected at 337 nm or 330 nm (4 nm bandwidth), thus reducing the signal originated from the free cap analogues. Measurements were carried out on a LS-55 spectrofluorometer (Perkin Elmer Co.) using freshly prepared proteins, and the fluorescence intensities were corrected for sample dilution and the inner filter effect.
(§7) Equilibrium association constants (Kas) were determined by fitting the theoretical dependence of fluorescence intensity on the total concentration of the cap analogue to the experimental data points, according to the equation described previously (see Ref. [22] and Fig. S2c).
as §4

[6] = tested on: heIF4E1b; test: as above; parameters: species or system human; conditions: without glycerol
Text: as §5, §6, §7, §4

[7] = target: T1, heIF4E1a; test: as above; conditions: for ΔΔG^o − glycerol heIF4E1a: without glycerol
Text: as §5, §6, §7, §4

[8] = target: T6, XeIF4E1a (Xenopus laevis, UniProt P48597); test: as above; conditions: for ΔΔG^o + glycerol XeIF4E1a / Kas + glycerol XeIF4E1a: 10% glycerol; for ΔΔG^o − glycerol XeIF4E1a: without glycerol; for Kas + glycerol XeIF4E1a / Kas − glycerol XeIF4E1a: equilibrium association constant; for Kas − glycerol XeIF4E1a: buffer without glycerol
T6 construct: made in house; host or cells: E. coli Rosetta2(DE3)
Text: as §5, §6, §7, §4

[9] = tested on: XeIF4E1a; test: as above; parameters: species or system Xenopus laevis; conditions: without glycerol
Text: as §5, §6, §7, §4

[10] = tested on: XeIF4E1bΔN27; test: as above; parameters: species or system Xenopus laevis; conditions: for Kas + glycerol XeIF4E1bΔN27: equilibrium association constant
Text: as §5, §6, §7, §4

[11] = target: T7, X4E1a1 (E101S) (Xenopus laevis, UniProt P48597, E101S); test: fluorescence titration, XeIF4E1a mutant; type: binding; conditions: mutant (E101S) of XeIF4E1a
T7 construct: made in house; host or cells: E. coli Rosetta2(DE3)
Text: as §1, §2, §3, §4

[12] = target: T8, X4E1a1’ (K102R) (Xenopus laevis, UniProt P48597, K102R); test: fluorescence titration, XeIF4E1a mutant; type: binding; conditions: mutant (K102R) of XeIF4E1a
T8 construct: made in house; host or cells: E. coli Rosetta2(DE3)
Text: as §1, §2, §3, §4

[13] = target: T9, X4E1a2 (E101S/K102R) (Xenopus laevis, UniProt P48597, E101S/K102R); test: fluorescence titration, XeIF4E1a mutant; type: binding; conditions: mutant (E101S/K102R) of XeIF4E1a
T9 construct: made in house; host or cells: E. coli Rosetta2(DE3)
Text: as §1, §2, §3, §4

[14] = tested on: in vitro translation; parameters: method as in PMID 10387101; conditions: Cai et al.; read-out: IC50 (inhibitory potency); cited from earlier work

T4 sequence (P48597 whole entry M82S/E101S/K102R/S195A/T206L/T207S): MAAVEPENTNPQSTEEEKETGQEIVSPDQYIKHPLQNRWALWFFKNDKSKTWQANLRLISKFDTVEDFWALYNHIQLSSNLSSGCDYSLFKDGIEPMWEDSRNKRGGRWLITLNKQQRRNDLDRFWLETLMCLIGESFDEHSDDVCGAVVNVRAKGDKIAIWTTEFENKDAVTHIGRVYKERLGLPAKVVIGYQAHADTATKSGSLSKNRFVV
T6 sequence (P48597 whole entry): as the sequence (P48597 whole entry M82S/E101S/K102R/S195A/T206L/T207S) above, with S82M, S101E, R102K, A195S, L206T, S207T counted along it
T1 sequence (P06730 whole entry): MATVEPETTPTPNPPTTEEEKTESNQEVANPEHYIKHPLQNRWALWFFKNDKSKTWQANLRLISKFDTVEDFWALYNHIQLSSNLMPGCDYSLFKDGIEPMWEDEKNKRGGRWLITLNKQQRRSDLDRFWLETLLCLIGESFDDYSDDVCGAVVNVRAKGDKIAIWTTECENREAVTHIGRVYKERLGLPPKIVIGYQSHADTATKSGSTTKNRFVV
T3 sequence (P48597 whole entry E101S/K102R/S195A): as the sequence (P48597 whole entry M82S/E101S/K102R/S195A/T206L/T207S) above, with S82M, L206T, S207T counted along it
T2 sequence (P48597 whole entry M82S/E101S/K102R/S195A): as the sequence (P48597 whole entry M82S/E101S/K102R/S195A/T206L/T207S) above, with L206T, S207T counted along it
T7 sequence (P48597 whole entry E101S): as the sequence (P48597 whole entry M82S/E101S/K102R/S195A/T206L/T207S) above, with S82M, R102K, A195S, L206T, S207T counted along it
T9 sequence (P48597 whole entry E101S/K102R): as the sequence (P48597 whole entry M82S/E101S/K102R/S195A/T206L/T207S) above, with S82M, A195S, L206T, S207T counted along it
T8 sequence (P48597 whole entry K102R): as the sequence (P48597 whole entry M82S/E101S/K102R/S195A/T206L/T207S) above, with S82M, S101E, A195S, L206T, S207T counted along it

For Cn1c[n+]([C@@H]2O[C@H](COP(=O)(O)OP(=O)(O)OP(=O)(O)OC[C@H]3O[C@@H](n4cnc5c(N)ncnc54)[C@H](O)[C@@H]3O)[C@@H](O)[C@H]2O)c2nc(N)[nH]c(=O)c21 [m^7GpppA], the “Kas − glycerol heIF4E1a” value [1] is given as 3.97 ± 0.21 ^b μM^− 1, the “Kas X4E1a4” value [2] is given as 1.48 ± 0.11 µM⁻¹ and the “Kas X4E1a3” value [3] is given as 1.57 ± 0.21 µM⁻¹. For the same compound, the “Kas X4E1a6” value [4] was 1.33 ± 0.11 µM⁻¹, the “ΔΔG^o − glycerol heIF4E1b” value ([5]; change relative to m^7GTP, without glycerol) was 1.352 ± 0.039 kcal/mol and the “Kas − glycerol heIF4E1b” value [5] was 2.158 ± 0.053 μM^− 1. The “Ratio Kas (h4E1a) to Kas (h4E1b)” value [6] was 1.84, the “ΔΔG^o − glycerol heIF4E1a” value ([7]; change relative to m^7GTP) was 1.658 ± 0.053 kcal/mol and the “ΔΔG^o + glycerol XeIF4E1a” value ([8]; change relative to m^7GTP) was 1.717 ± 0.033 kcal/mol. The “ΔΔG^o − glycerol XeIF4E1a” value ([8]; change relative to m^7GTP) was 1.779 ± 0.029 kcal/mol, the “Kas + glycerol XeIF4E1a” value [8] was 1.22 ± 0.053 μM^− 1 and the “Kas − glycerol XeIF4E1a” value [8] was 2.015 ± 0.028 μM^− 1. For the same compound, the “Ratio Kas (h4E1a) to Kas (X4E1a)” value [9] was 1.97, the “Ratio Kas (X4E1a) to Kas (X4E1bΔN27)” value ([10]; 10% glycerol) was 1.99 and the “ΔΔG^o + glycerol XeIF4E1bΔN27” value ([10]; change relative to m^7GTP, 10% glycerol) was 1.479 ± 0.050 kcal/mol. For the same compound, the “Kas + glycerol XeIF4E1bΔN27” value ([10]; 10% glycerol) was 0.615 ± 0.042 μM^− 1.
With Nc1nc2c(c(=O)[nH]1)n(Cc1ccccc1)c[n+]2[C@@H]1O[C@H](COP(=O)(O)OP(=O)(O)O)[C@@H](O)[C@H]1O [bn^7GDP] the “Kas X4E1a4” value [2] was 11.66 ± 0.64 µM⁻¹, the “Kas X4E1a1” value [11] was 9.01 ± 0.21 µM⁻¹ and the “Kas X4E1a1’” value [12] was 11.22 ± 0.65 µM⁻¹. For the same compound, the “Kas X4E1a3” value [3] was 9.08 ± 0.33 µM⁻¹, the “Kas X4E1a2” value [13] was 8.86 ± 0.16 µM⁻¹ and the “Kas + glycerol X4E1a6” value ([4]; 10% glycerol, Fig. 5d) was 3.57 ± 0.24 µM⁻¹. For the same compound, the “Kas X4E1a6” value [4] was 7.09 ± 0.18 µM⁻¹, the “fold increase of association constant compared with m^7GDP” value ([5]; benzyl substitution) was “approximately 5 fold” and the “Kas − glycerol heIF4E1b” value [5] was 35.4 ± 1.6 μM^− 1. For the same compound, the “Ratio Kas (h4E1a) to Kas (h4E1b)” value [6] was 0.47, the “ΔΔG^o − glycerol heIF4E1a” value ([7]; change relative to m^7GDP) was 0.033 ± 0.022 kcal/mol and the “Kas − glycerol heIF4E1a” value ([7]; equilibrium association constant, buffer without glycerol) was 16.79 ± 0.56 μM^− 1. For the same compound, the “ΔΔG^o − glycerol XeIF4E1a” value ([8]; change relative to m^7GDP) was 0.042 ± 0.059 kcal/mol, the “Kas + glycerol XeIF4E1a” value [8] was 6.04 ± 0.92 μM^− 1 and the “Kas − glycerol XeIF4E1a” value [8] was 10.62 ± 0.98 μM^− 1. For the same compound, the “Ratio Kas (h4E1a) to Kas (X4E1a)” value [9] was 1.58, the “Ratio Kas (X4E1a) to Kas (X4E1bΔN27)” value ([10]; 10% glycerol) was 1.38 and the “fold increase of association constant compared with m^7GDP” value ([10]; benzyl substitution) was ~2 fold. The “Kas + glycerol XeIF4E1bΔN27” value ([10]; 10% glycerol) was 4.36 ± 0.18 μM^− 1.
For Nc1nc2c(c(=O)[nH]1)n(Cc1ccc(Cl)cc1)c[n+]2[C@@H]1O[C@H](COP(=O)([O-])OP(=O)(O)O)[C@@H](O)[C@H]1O [p-Cl-bn^7GDP], the IC50 [14] is listed as 6.76 µM.
In the case of COC1C(O)C(COP(=O)(O)OP(=O)(O)OP(=O)(O)OCC2OC(n3cnc4c(=O)[nH]c(N)nc43)C(O)C2O)OC1n1c[n+](C)c2c(=O)[nH]c(N)nc21 (centres unmarked) [m^7,2′-OGpppG], the “Kas − glycerol heIF4E1a” value [1] is given as 6.13 ± 0.34 ^b μM^− 1, the “Kas − glycerol heIF4E1b” value [5] is given as 4.63 ± 0.12 μM^− 1 and the “Ratio Kas (h4E1a) to Kas (h4E1b)” value [6] is given as 1.32. The “ΔΔG^o + glycerol XeIF4E1a” value ([8]; change relative to m^7Gp3G) was 0.091 ± 0.074 kcal/mol and the “Kas + glycerol XeIF4E1a” value [8] was 1.96 ± 0.24 μM^− 1.
